Reference: publication PMC4484629, “Targeting of anti-citrullinated protein/peptide antibodies in rheumatoid arthritis using peptides mimicking endogenously citrullinated fibrinogen antigens” (Arthritis Research & Therapy, 2015)
“And” between values parts separate entries of the source, which are not always exact repeats. Equal entries are not always repeated. Where a SMILES comes first, the peptide text is derived from it. [ ]: non-standard residue; d: D form. Cit = NC(=O)NCCC[C@H](N)C(=O)O

Tests used:
[1] = system: ACPA pool I (affinity purified human anti-CCP2 IgG); assay: ACPA competition assay: peptide pre-incubated with ACPA, then anti-CCP2 ELISA (CCPlus); assay type: binding; conditions: for maximum ACPA blocking (inhibition of anti-CCP2 reactivity): ACPA pool I 1.2 μg/ml (8 nM IgG), peptide 0.016-320 nmol in 225 μl, 1 h room temperature before CCP2 ELISA, mean of 2-7 experiments; for IC50: ACPA pool I 1.2 μg/ml, 1 h room temperature pre-incubation, mean ± SEM, n given per value (n = 2-6), GraphPad Prism, read-out: IC50 of ACPA blocking (relative IC50)
Method: (§1) ACPA were affinity purified as recently described. Two different ACPA pools were prepared for the competition assays: ACPA pool I, containing autoantibodies purified from 11 plasma or serum samples (plasma n = 4, sera n = 7); and ACPA pool II, containing 39 plasma or serum samples (plasma n = 38, serum n = 1). Before pooling, each purified ACPA sample was individually tested by in house ELISA for immunoreactivity to fibrinogen Cit573 and citrullinated fibrinogen 36-52 [24]. Anti-CCP2 reactivity was determined using the Immunoscan CCPlus® assay. All pooled samples were CCP2 positive.
(§2) ACPA pools I and II were used at a concentration of 1.2 μg/ml (8 nM IgG). The autoantibodies were incubated with the fibrinogen and fibrinogen-derived peptides at room temperature for one hour. The mole quantities of peptides tested were: 0.016, 0.16, 1.6, 16, 22, 49, 60, 80, 120, 160, 216, and 320 nmol in an incubation volume of 225 μl. ACPA blocking by the fibrinogen peptides was subsequently assessed by measuring the remaining anti-CCP2 reactivity. Cit573 and Cit591 were equally combined and co-tested for ACPA blocking. Arginine peptides (573, 591, 72, and 74) were used as negative controls in all assays.
(§3) To further explore the blocking potential of Cit573, a retrieval assay was performed, that is, the ability of the peptide to compete with already CCP2-bound ACPA was tested. ACPA pool I was added to the CCP2 plate and incubated for one hour at room temperature, followed by the addition of the peptides (citrulline and unmodified peptides) at mole quantities ranging from 16 to 320 nmol. ACPA pools incubated with no peptide were defined as positive control, giving the maximum values of anti-CCP2 reactivity. Arbitrary units were calculated according to the standard curve given by the ELISA kit. Each experiment had one standard curve. Mean values were calculated and results are expressed as a function of percentage of inhibition of ACPA from the peptide amount (nmol).
(§4) Results are presented as mean ± standard error (SEM) of values (two to seven experiments per ACPA pool), and were compared using the Student’s t-test for unpaired comparisons using GraphPad Prism 6 software (La Jolla, CA, USA). Median values were also calculated in order to consider non-Gaussian distributions. As the mean and median values were generally coincident, the Mann-Whitney U test was not selected for statistical analysis. P <0.05 was assumed to denote a significant difference. Relative IC50 values (IC50 definition according to International Union of Pharmacology Committee on Receptor Nomenclature and Drug Classification – ‘the molar concentration of an antagonist that reduces the response to an agonist by 50 %’ [25]) were also calculated using GraphPad Prism 6 software. Cutoffs for the ISAC system chip data were calculated as the 98th percentile reactivity among the 461 EIRA controls investigated in parallel to the 927 RA patients.

[2] = system: ACPA pool II (affinity purified human anti-CCP2 IgG); assay: as above; assay type: binding; conditions: for maximum ACPA blocking (inhibition of anti-CCP2 reactivity): ACPA pool II 1.2 μg/ml (8 nM IgG), peptide 0.016-320 nmol in 225 μl, 1 h room temperature before CCP2 ELISA, mean of 2-7 experiments; for IC50: ACPA pool II 1.2 μg/ml, 1 h room temperature pre-incubation, mean ± SEM, n given per value (n = 2-4), GraphPad Prism, read-out: IC50 of ACPA blocking (relative IC50)
Method: as §1, §2, §3, §4

[3] = system: sera from RA patients (EIRA cohort); assay: Peptide microarray (ImmunoCAP ISAC), immune reactivity of sera against the fibrinogen peptides; assay type: binding, human; conditions: for positive immune reactivity among anti-CCP2-positive RA patients: 402 CCP2-positive RA sera; for positive immune reactivity among anti-CCP2-positive RA patients / positive immune reactivity among anti-CCP2-negative RA patients: cutoff 98th percentile of healthy controls; for positive immune reactivity among anti-CCP2-negative RA patients: 525 CCP2-negative RA sera; for diagnostic sensitivity among all 927 RA patients: share of sera positive, Arg control intensity subtracted, cutoff 98th percentile of 461 healthy controls (98 % specificity)
Method: Serum from 927 RA patients (newly diagnosed patients within 12 months of appearance of first symptoms; 402 CCP2 positive and 525 CCP2 negative) and 461 healthy controls from the Epidemiological Investigation of RA (EIRA) case-control cohort were collected. Control samples were randomly chosen from the Swedish population registry, matching for age, sex, and residential area. All serum and plasma samples were stored at −70 °C prior to analysis. All patients fulfilled the American College of Rheumatology-European League Against Rheumatism criteria for RA [20]. CCP2-positive RA individuals used for ACPA affinity purification were selected based on having high anti-CCP2 antibody levels (>300 AU/ml, Immunoscan CCPlus® assay, Euro-Diagnostica AB, Sweden). All patients gave written informed consent. This study was approved by the regional ethical committee at the Karolinska Institutet (96-174), and performed in accordance with the Declaration of Helsinki.
Peptide microarray was performed as previously described. Briefly, peptides (sequences in Table 1) were immobilized onto a chemically modified glass slide, sera from RA patients and healthy controls were applied into the reactions sites, and fluorescence intensity after incubation with anti-human IgG antibody was acquired in a laser scanner (LuxScan 10K, CapitalBio, Beijing, China). Final results for each citrullinated peptide were calculated by subtracting the intensity values of the corresponding arginine-containing control from the citrullinated peptide for all RA patients and controls. Cutoff values were determined as the 98th percentile of the healthy control responses. Microarray data are available in the ArrayExpress database under accession number [EMBL:E-MTAB-3606].
as §4

[4] = system: ACPA pool I bound to CCP2 plate; assay: Retrieval assay: peptide competes with already CCP2-bound ACPA; assay type: binding, human; conditions: ACPA pool I bound to CCP2 plate 1 h room temperature, then peptide 16-320 nmol; data not shown
Method: as §3

Compound	maximum ACPA blocking (inhibition of anti-CCP2 reactivity) [1] [%]	maximum ACPA blocking (inhibition of anti-CCP2 reactivity) ([1]; listed as cyclic form of the Cit573 peptide)	IC50 [1] [µM]	maximum ACPA blocking (inhibition of anti-CCP2 reactivity) [2]	IC50 [2] [µM]	positive immune reactivity among anti-CCP2-positive RA patients [3]	positive immune reactivity among anti-CCP2-negative RA patients [3]	diagnostic sensitivity among all 927 RA patients [3] [%]	ACPA binding to the CCP2 ELISA plate reverted (retrieval) [4] [%]
CC[C@H](C)[C@@H]1NC(=O)CNC(=O)[C@@H]2CCCN2C(=O)[C@H](Cc2c[nH]cn2)NC(=O)[C@H](Cc2c[nH]cn2)NC(=O)[C@H](CS)NC(=O)[C@H](Cc2ccccc2)NC(=O)[C@H](CCC(N)=O)NC(=O)[C@H](CCCCN)NC(=O)[C@H](CO)NC(=O)[C@H](Cc2ccc(O)cc2)NC(=O)[C@H](CO)NC(=O)[C@H](CO)NC(=O)[C@H](CO)NC(=O)[C@H](CCCCN)NC(=O)CNC(=O)[C@H](CCCNC(N)=O)NC(=O)[C@H](CO)NC(=O)[C@@H]2CCCN2C(=O)[C@H](Cc2ccccc2)NC(=O)[C@H](CCC(=O)O)NC(=O)[C@H](C)NC1=O [Cit573Cyc] (cyclo(CHHPGIAEFPS[Cit]GKSSSYSKQF))	92	approximately 90%	28	approximately 90%					
CC[C@H](C)[C@H](NC(=O)CN)C(=O)N[C@@H](C)C(=O)N[C@@H](CCC(=O)O)C(=O)N[C@@H](Cc1ccccc1)C(=O)N1CCC[C@H]1C(=O)N[C@@H](CO)C(=O)N[C@@H](CCCNC(N)=O)C(=O)NCC(=O)N[C@@H](CCCCN)C(=O)N[C@@H](CO)C(=O)N[C@@H](CO)C(=O)N[C@@H](CO)C(=O)N[C@@H](Cc1ccc(O)cc1)C(=O)N[C@@H](CO)C(=O)O [Cit573Lin1] (H-GIAEFPS[Cit]GKSSSYS-OH; N-terminus assumed)	75		51	47%	186				
C[C@H](N)C(=O)N[C@@H](CCC(=O)O)C(=O)N[C@@H](Cc1ccccc1)C(=O)N1CCC[C@H]1C(=O)N[C@@H](CO)C(=O)N[C@@H](CCCNC(N)=O)C(=O)NCC(=O)N[C@@H](CCCCN)C(=O)N[C@@H](CO)C(=O)N[C@@H](CO)C(=O)N[C@@H](CO)C(=O)O [Cit573Lin2] (H-AEFPS[Cit]GKSSS-OH; N-terminus assumed)	69		123	40%	105				
CC[C@H](C)[C@H](NC(=O)CNC(=O)[C@@H]1CCCN1C(=O)[C@H](Cc1c[nH]cn1)NC(=O)[C@@H](N)Cc1c[nH]cn1)C(=O)N[C@@H](C)C(=O)N[C@@H](CCC(=O)O)C(=O)N[C@@H](Cc1ccccc1)C(=O)N1CCC[C@H]1C(=O)N[C@@H](CO)C(=O)N[C@@H](CCCNC(N)=O)C(=O)NCC(=O)N[C@@H](CCCCN)C(=O)N[C@@H](CO)C(=O)N[C@@H](CO)C(=O)N[C@@H](CO)C(=O)N[C@@H](Cc1ccc(O)cc1)C(=O)N[C@@H](CO)C(=O)N[C@@H](CCCCN)C(=O)N[C@@H](CCC(N)=O)C(=O)N[C@@H](Cc1ccccc1)C(=O)O [Cit573] (H-HHPGIAEFPS[Cit]GKSSSYSKQF-OH)	84		59	Approximately 50%	548	65% and 65.4%	5% and 5.5%	31.5	80
C[C@@H](O)[C@H](NC(=O)[C@H](CO)NC(=O)[C@H](CC(=O)O)NC(=O)CNC(=O)[C@H](CCCNC(N)=O)NC(=O)[C@H](CC(N)=O)NC(=O)[C@H](Cc1ccc(O)cc1)NC(=O)[C@H](CO)NC(=O)[C@@H](NC(=O)[C@H](CO)NC(=O)[C@H](CO)NC(=O)[C@@H](NC(=O)[C@H](Cc1ccccc1)NC(=O)[C@H](CCC(N)=O)NC(=O)[C@H](CCCCN)NC(=O)[C@@H](N)CO)[C@@H](C)O)[C@@H](C)O)C(=O)N[C@@H](Cc1ccccc1)C(=O)N[C@@H](CCC(=O)O)C(=O)N[C@@H](CO)C(=O)N[C@@H](CCCCN)C(=O)N[C@@H](CO)C(=O)O [Cit591] (H-SKQFTSSTSYN[Cit]GDSTFESKS-OH)	63		194		412	15% and 14.7%	6% and 6.1%	9.8	
